Assay results taken from the NIST ThermoML archive (doi:10.1021/je0604232).

Test: molar heat capacity at constant pressure; xn = mol fraction of the nth substance listed
Conditions: 101 kPa, Liquid

CC(O)CN (stereo not given) [1-amino-2-propanol] + O
molar heat capacity at constant pressure [J/K/mol]
Conditions	x1 = 0.1	x1 = 0.2007	x1 = 0.2996	x1 = 0.4001	x1 = 0.4983	x1 = 0.6013	x1 = 0.6999	x1 = 0.7996	x1 = 0.8959	x1 = 1
303.15 K	95	110	121	133	145	158	170	183	196	209
308.15 K	97	113	124	137	149	162	174	187	200	213
313.15 K	98	114	126	139	151	164	176	188	201	214
318.15 K	99	116	128	141	154	166	177	190	202	215
323.15 K	100	117	130	144	156	168	180	192	204	217
328.15 K	102	119	133	147	159	171	182	194	206	218
333.15 K	104	121	136	150	162	174	185	197	209	221
338.15 K	106	125	140	154	166	178	188	200	211	223
343.15 K	109	128	144	158	170	181	192	203	214	225
348.15 K	112	133	149	163	175	185	195	206	216	228
353.15 K	117	138	155	169	180	190	199	209	219	230
